The results in this text go back to article PMC12040169 (PLOS Biology, 2025).

The nature of the data set: in vitro. The settings on record: human, hela cells, % viability.

A word on the viability: it is a read-out of living cells in per cent, often relative to untreated cells. For `CN(C)Cc1ccccc1Cn1cncc1-c1cnn(C)c1` [CBK281764], the viability at 28.5 h, 10 µM was determined as 99.5%.
Take `CN(C)CCOC(=O)c1ccc(S(=O)(=O)N(C)C)o1` [CBK264273C]: the viability at 28.5 h, 10 µM amounted to 100%.
In the case of `CC(Oc1cccc(C#N)c1)C(=O)NCC1(N2CCOCC2)CCSC1` (stereo not shown) [CBK305780], the viability at 28.5 h, 10 µM was 94.8%.
`O=C(Nc1ccc(N2CCN(Cc3ccccc3)CC2)cc1)c1cncc(Br)c1` [CBK267093]: the viability at 28.5 h, 10 µM came to 85%.
On to `COC(=O)c1cn([C@H]2CO[C@H]3[C@@H]2OC[C@@H]3NC(=O)Nc2cccc(C(F)(F)F)c2)nn1` [CBK289501], for which the viability at 28.5 h, 10 µM is 78.9%.
In the case of `O=C(c1cccc2ncccc12)N1CC[C@@H](c2ccccc2)[C@H](O)C1` [CBK283716] it was 84.3%; in that of `Cc1ccc(-c2cc(C(=O)O)c3cc4c(C(=O)O)cc(-c5ccc(C)o5)nc4cc3n2)o1` [CBK264342], 87.4%.
Consider `COc1ccc(-c2c(O)n[nH]c2CCC2CCCC2)cc1` [CBK075126], for which the viability at 28.5 h, 10 µM amounted to 88.1%.
The result for `CCNC(=O)CN(C)S(=O)(=O)c1cc(Cl)ccc1Cl` [CBK091853] reads 94.1%.
The result for `CC(C)n1cc(C(=O)N2CCCCC2c2nc3ccccc3[nH]2)cn1` (stereo not shown) [CBK283679] reads 102%; that for `CC(C)(C)C(=O)Nc1ccc(S(=O)(=O)NC2CCCCC2)cc1` [CBK268783], 118%.
In the case of `CCc1nccn1CC(=O)NC(Cc1ccsc1)c1nccs1` (stereo not shown) [CBK285139], the viability at 28.5 h, 10 µM came out at 111%.
`Cc1ccc(NC(=O)C2CN(S(=O)(=O)c3ccccc3)CCN2S(=O)(=O)c2ccccc2)c(C)c1` (stereo not shown) [CBK262693]: the viability at 28.5 h, 10 µM stood at 83.8%.
In the case of `COc1cccc(NC(=O)NC(=O)C2CCN(C(C)C)CC2)c1` [CBK034798] it was 89.6%; in that of `COCCNc1nccnc1-c1cccc(C(F)(F)F)c1` [CBK037330], 89.7%; in that of `Cc1ccc(O)c(NC(=O)c2nc3ncccn3n2)c1` [CBK267629], 99.6%.
The result for `CC(Oc1ccccc1)C(=O)N1CCN(CCO)CC1` (stereo not shown) [CBK267428] reads 98.6%; that for `CCCCn1c(SCCC(=O)Nc2ccccc2C(=O)c2ccccc2)n[nH]c1=O` [CBK296693], 87.3%.
Consider `Cc1nnc(SCc2cc(=O)nc(NC(=N)Nc3cccc(Cl)c3)[nH]2)s1` [CBK266318], for which the viability at 28.5 h, 10 µM was found to be 75.5%.
`COc1cc(OC)nc(Oc2ccc(C(=O)O)cc2)n1` [CBK092222]: the viability at 28.5 h, 10 µM is 106%.
The result for `O=C(Nc1ccc(N2CCN(Cc3ccccc3)CC2)cc1)c1ccc(-c2ccccc2)cc1` [CBK268622] reads 109%.
In the case of `CC(C)c1cc(C(=O)N[C@@H]2CCOC[C@H]2Oc2ccc(CO)cc2)on1` [CBK306554], the viability at 28.5 h, 10 µM came out at 101%.
The result for `CN(CCN1CCCCC1)C(=O)Cn1cnc2ccccc21` [CBK281515] reads 90.6%; that for `O=C(CC1(O)C(=O)N(CCc2ccccc2)c2ccc(Br)cc21)c1ccncc1` (stereo not shown) [CBK293976], 90.2%.
As to `CC(C)(C)c1cc(CCC(c2cc(C(C)(C)C)c(O)c(C(C)(C)C)c2)c2cc(C(C)(C)C)c(O)c(C(C)(C)C)c2)cc(C(C)(C)C)c1O` [CBK261271], the viability at 28.5 h, 10 µM is 92.9%.
Regarding `COc1ccc(C)cc1NC(=O)CCN1CCN(C)CC1` [CBK264216], the viability at 28.5 h, 10 µM worked out at 102%.
The result for `CCCc1[nH]nc(O)c1CCc1ccc(OC)cc1` [CBK081128] reads 102%.
With `Clc1ccc2c(c1)CCC(NCC1COc3ccccc3O1)C2` (stereo not shown) [CBK013077C], the viability at 28.5 h, 10 µM stood at 97.5%.
The result for `COc1ccc(Nc2ccc(-c3cccc(N(C)C)c3)cn2)cn1` [CBK037588] reads 95.5%; that for `CC(C)Cn1ncc2cc(C(=O)Nc3ccnn3C(C)C)cnc21` [CBK304938], 79%.
Turning to `Cn1c(SCCC(=O)O)nnc1-c1cccnc1` [CBK269077], the viability at 28.5 h, 10 µM is 108%.
In the case of `COc1ccc(CNc2ccc(N3CCOCC3)c(C(=O)O)c2)cc1OC` [CBK269915] it was 95.2%; in that of `COC(=O)c1c(NC(=O)CC2Nc3ccccc3NC2=O)sc2c1CCC2` (stereo not shown) [CBK269307A], 93.7%.
The result for `Cc1cc(-c2nccnc2NCCCN2CCOCC2)cc(C)c1O` [CBK036598] reads 92%; that for `Cc1nn2c3ccccc3nc2n1CCN1CCCCC1` [CBK278256C], 95.3%.
Regarding `Cc1cc(-c2ccc(=O)n(CCNC(=O)C3CCC3)n2)c(C)o1` [CBK284520], the viability at 28.5 h, 10 µM was determined as 110%.
The result for `COC(=O)CC1(C)C(=O)CCC2(C)C1=CCc1ccccc12` (stereo not shown) [CBK006547] reads 105%; that for `COc1ccccc1-c1ncc(OCCN2CCOCC2)nc1N` [CBK145072], 113%; that for `O=C1CCC[C@]2(CN(C(=O)C3CC3)C[C@H]2c2ccc(F)c(F)c2)N1` [CBK283364], 111%.
The result for `Cc1nccn1-c1ccc(NC(=O)c2ccn(C(F)F)n2)cc1` [CBK281410] reads 110%; that for `CCn1cc(C(=O)NN)c(=O)c2cc(F)c(NN)cc21` [CBK262735], 79.1%.
In the case of `O=C1Nc2ccc(Br)cc2C(=O)N2CCNC[C@H]12` [CBK289583] it was 85.1%; in that of `C=CCn1c(COc2cccc3ccc(C)nc23)nnc1SC` [CBK266608], 94.2%.
In the case of `CSc1nc(O)c(C(c2ccc(C(=O)O)cc2)c2c(O)nc(SC)nc2O)c(O)n1` [CBK265288], the viability at 28.5 h, 10 µM was found to be 94.8%.
`Cc1noc(C)c1S(=O)(=O)NCC(=O)N1CCOCC1` [CBK034476]: the viability at 28.5 h, 10 µM turned out to be 94.9%.
In the case of `CC(C)S(=O)(=O)n1ccn(-c2ccc(Oc3ccccc3)cc2)c1=O` [CBK106644] it was 86.3%; in that of `Cc1nc2c(c(=O)[nH]1)CCN(C(=O)c1cc3c(s1)CCC3)C2` [CBK283751], 105%; in that of `Cc1ccc(C(=O)NCC(=O)O)cc1S(=O)(=O)N1CCOCC1` [CBK264534], 90.9%.
In the case of `Cn1c(=O)oc2cc(S(=O)(=O)NCc3ccccc3)ccc21` [CBK267568] it was 90.8%.
Take `O=c1[nH]nc2c(S(=O)(=O)N3CCCCC3)cccn12` [CBK288450]: the viability at 28.5 h, 10 µM is 74.9%.
The result for `Cc1cnc(COC(=O)N2C[C@@H](C)O[C@@H](C)C2)cn1` [CBK200124] reads 81.4%; that for `CCNc1nc(=S)[nH]c2sc3c(c12)CCC(C)C3` (stereo not shown) [CBK086242], 89.2%.
In the case of `COc1cc(C(=O)NCc2ccc(-c3csnn3)cc2)cc(OC)c1OC` [CBK149308] it was 87%.
As to `O=C1OC(c2ccc(N3C(=O)c4cccc5cccc(c45)C3=O)cc2)(c2ccc(N3C(=O)c4cccc5cccc(c45)C3=O)cc2)c2ccccc21` [CBK261845], the viability at 28.5 h, 10 µM stood at 95.3%.
As to `COc1ccc2[nH]cc(CCNC(=O)N(C)C3CCN(C)C3)c2c1` (stereo not shown) [CBK156004], the viability at 28.5 h, 10 µM was 112%.
Regarding `COc1ccc(CCN2C(=O)CC(C(=O)O)S/C2=N\c2ccccc2)cc1` (stereo not shown) [CBK286606], the viability at 28.5 h, 10 µM amounted to 90.6%.
Consider `O=C(Nc1cccnc1)c1cc(S(=O)(=O)N2CCOCC2)ccc1Br` [CBK270101], for which the viability at 28.5 h, 10 µM worked out at 92.4%.
In the case of `O=C1CO[C@H]2CN(Cc3ncc[nH]3)C[C@H]2N1Cc1ccncc1` [CBK289259] it was 108%; in that of `COc1ccccc1CN(CC1CCNCC1)C(=O)Nc1c(C)noc1C` [CBK049739], 94.7%.
The result for `O=C(O)C1CCCN1C(=O)NCc1c(Cl)cccc1Cl` (stereo not shown) [CBK161383] reads 88.1%.
The result for `CCOC(=O)CN1C(=O)S/C(=C/c2cc(Cl)c(OCC(=O)O)c(Br)c2)C1=O` [CBK264614] reads 106%.
Take `O=C(N/N=C/c1ccc([N+](=O)[O-])cc1)C(=O)Nc1cccc(Cl)c1` [CBK261821]: the viability at 28.5 h, 10 µM is 95.8%.
Regarding `Cc1ccc2cc(C3CC(c4ccccc4)=NN3C(=O)CCC(=O)O)c(=O)[nH]c2c1` (stereo not shown) [CBK296127], the viability at 28.5 h, 10 µM was determined as 109%.
For the molecule `O=c1[nH]c2ncc(-c3cncc4ccccc34)nc2n1C1CCC(O)CC1` (stereo not shown) [CBK065013], the viability at 28.5 h, 10 µM amounted to 108%.
The result for `Cc1cccc(N2CCN(CCCC(c3ccc(F)cc3)c3ccc(F)cc3)CC2)n1` [CBK025113C] reads 93.9%; that for `O=C(NCc1ccccc1)N1CCC(n2cnc3cccnc32)CC1` [CBK282281], 100%.
`CCCn1c(C)cc2cc(NC(=O)C(C)n3ccnc3)ccc21` (stereo not shown) [CBK281547]: the viability at 28.5 h, 10 µM worked out at 85.8%.
For `Cc1nc(-c2cccnc2)[nH]c(=O)c1CCC(=O)N1CC2CCC1C2` (stereo not shown) [CBK304198], the viability at 28.5 h, 10 µM was determined as 82.3%.
For the molecule `Cc1cc(Br)c(O)c(C(=O)N(C)CC(=O)Nc2cc(C)on2)c1` [CBK306002], the viability at 28.5 h, 10 µM was determined as 94.8%.
In the case of `Cc1ccc(OCc2nnc(SCC(=O)c3cccc([N+](=O)[O-])c3)n2C)cc1` [CBK268580] it was 86.9%; in that of `COc1ccc2c(c1OC)C(=O)N(c1ncc(C)s1)C2` [CBK109943], 99%.
In the case of `O=[N+]([O-])c1cc(S(=O)(=O)Nc2ccccc2)ccc1N1CCN2CCCC2C1` (stereo not shown) [CBK001248] it was 87.7%.
The result for `CS(=O)(=O)Nc1nccnc1OC1CCN(CCCC#N)CC1` [CBK084276] reads 99.4%.
Turning to `CCOc1ccc(-c2nc(N)ncc2Oc2ccc(OC)cc2)c(O)c1` [CBK288105], the viability at 28.5 h, 10 µM amounted to 101%.
Regarding `O=C1c2ccccc2CN1c1nccs1` [CBK113184], the viability at 28.5 h, 10 µM is 84.8%.
Consider `CCN(c1ccccc1)S(=O)(=O)c1ccc(C(=O)NC(C)c2ccc3c(c2)OCCO3)cc1` (stereo not shown) [CBK296945], for which the viability at 28.5 h, 10 µM worked out at 83.5%.
In the case of `Cc1cc(NCn2nnc3ccccc32)ccc1Br` [CBK057031] it was 88.2%; in that of `CCN(CC)CCNC(=O)c1cccc(Nc2cncc(-c3ccc(O)cc3)n2)c1` [CBK122671], 96.9%.
As for `COc1ccccc1N1CCN(C2CCN(Cc3ccc([N+](=O)[O-])cc3)CC2)CC1` [CBK264734G], the viability at 28.5 h, 10 µM is 98.8%.
